Test results reported in ChEMBL document CHEMBL4834398, “Synthesis of Yakuchinone B-Inspired Inhibitors against Islet Amyloid Polypeptide Aggregation” (J Nat Prod, 2021).
Calls of active or inactive are those of the source. The calls are words filed in the database; no cut-off is given here.

What was measured:
BRIN-BD11 [1] = experiment: Protective activity against IAPP-induced toxicity in rat […] cells assessed as cell viability at 10 uM after 72 hrs by MTT assay; type: functional, cell-based
BRIN-BD11 [2] = experiment: Protective activity against IAPP-induced toxicity in rat […] cells assessed as cell viability at 0.02 to 0.63 uM after 72 hrs by MTT assay; type: functional, cell-based; conditions: dose 0.02-0.63 µM
[3] = Protective activity against IAPP-induced toxicity in rat BRIN-B11 cells assessed as cell viability after 72 hrs by MTT assay; conditions: BRIN-BD11, 72 h
[4] = target: T1, Islet amyloid polypeptide (Homo sapiens, UniProt P10997); experiment: Inhibition of islet amyloid polypeptide (unknown origin) aggregation after 24 hrs by thioflavin T based fluorescence assay
T1 sequence (P10997 whole entry): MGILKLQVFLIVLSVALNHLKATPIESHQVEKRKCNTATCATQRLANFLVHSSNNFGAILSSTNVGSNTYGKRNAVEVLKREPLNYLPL

Row | IC50 [4] | Compound | Activity (BRIN-BD11 [1]) | Activity (BRIN-BD11 [2]) | EC50 [3]
1 |  | CC(=O)/C=C/c1cccc(O)c1O | inactive |  | 
2 |  | CCC(=O)/C=C/c1cccc(O)c1O | inactive |  | 
3 |  | CCCCC(=O)/C=C/c1cccc(O)c1O |  | Active | 0.2 µM
4 | > 10 µM | CC(=O)CCc1ccc(O)c(O)c1 |  |  | 
5 | 7.8 µM | O=c1c(O)c(-c2ccc(O)cc2O)oc2cc(O)cc(O)c12 [MORIN] |  |  | 1 µM
6 |  | CCCC(=O)/C=C/c1cccc(O)c1O |  | Active | 0.1 µM
7 | 3.7 µM | CC(=O)/C=C/c1ccc(O)c(O)c1 |  |  | 
